Source: patent US20250276983A1, “COMPOUNDS AND METHODS FOR MODULATING HER2” (IAMBIC THERAPEUTICS, INC., priority 2022, published 2025)
Like-named read-outs stand apart in the source and are kept apart here.

Legend:
wtERBB2 = wtERBB2 (Homo sapiens (Human), UniProt P04626); test: HotSpot radiometric kinase activity assay, wtERBB2; format: biochemical; details: 30 nM wtERBB2, 10 μM 33P-ATP, 20 min preincubation, 2 hours, read-out: HER2 WT IC50
wtEGFR = wtEGFR (Homo sapiens (Human), UniProt P00533); test: HotSpot radiometric kinase activity assay, wtEGFR; format: biochemical; details: 4 nM wtEGFR, 10 μM 33P-ATP, 20 min preincubation, 2 hours, read-out: EGFR WT IC50
Method: The purpose of the wtERBB2, ERBB2-A775_G776insYVMA (ERBB2YVMA), wtEGFR biochemical assay was to evaluate the inhibition (% inhibition and IC50 values) of the small molecule inhibitors by using the “HotSpot” radiometric kinase activity assay. HotSpot assays monitor the […] of kinase substrate by the radioactive gamma phosphate of adenosine triphosphate (33P-ATP) during biochemical reactions. HotSpot assays was performed in steps upon completion of the kinase reaction: deposition of a reaction mixture aliquot onto P81 ion exchange paper, extensive washing of the aforementioned P81 paper using phosphoric acid to remove unbound radiolabeled 33P-ATP from the P81 paper, and finally visualization and quantification of the dried P81 paper utilizing a phosphoimager. […] Typical reaction solutions (10 μL final reaction volume) contained the following buffer conditions: 20 mM Hepes (pH 7.5), 10 mM MgCl2, 1 mM EGTA, 0.01% Brij35, 0.02 mg/mL BSA, 0.1 mM Na3VO4, 2 mM DTT, 1% DMSO. The assay was primed by preparing a fresh 0.2 mg/mL solution of pEY (Sigma Cat: P7244) substrate in the reaction buffer and supplementing that solution with […] of MnCl2 as substrate cofactor (Sigma Cat: M9522). The kinase of interest was then added to the solution at the appropriate concentration (30 nM wtERBB2 from, or 20 nM ERBB2YVMA, or 4 nM wtEGFR) and gently mixed prior to delivery of compound in 100% DMSO by acoustic dispensing (Beckman Echo550). Compound, Kinase, and substrate were allowed to incubate for 20 min at room temperature prior to the initiation of the reaction by addition of 33P-ATP (PerkinElmer Cat: NEG602, final conc 10 μM). […] IC50 determinations were made from a plot of kinase activity as a function of inhibitor concentration fit to the 4-parameter IC50 equation with the enzyme concentration held constant using GraphPad Prism (San Diego).

BaF3_HER2YVMA cells = test: Cell growth inhibition assay, BaF3_HER2YVMA; format: cell-based; details: 72 h, read-out: HER2-YVMA IC50 (nM), cell growth inhibition
BaF3_HER2WT cells = test: Cell growth inhibition assay, BaF3_HER2WT; format: cell-based; details: 72 h, 3 days treatment, CellTiterGlo 2.0, read-out: HER2 WT IC50 (nM), cell growth inhibition
BaF3_EGFRWT cells = test: Cell growth inhibition assay, BaF3_EGFRWT; format: cell-based; details: 72 h, 80 ng/mL recombinant human EGF, 3 days treatment, CellTiterGlo 2.0, read-out: EGFR WT IC50 (nM), cell growth inhibition
[1] = BaF3_HER2YVMA cells, 3 days treatment, CellTiterGlo 2.0

Chain of wtEGFR (P00533 25-1210): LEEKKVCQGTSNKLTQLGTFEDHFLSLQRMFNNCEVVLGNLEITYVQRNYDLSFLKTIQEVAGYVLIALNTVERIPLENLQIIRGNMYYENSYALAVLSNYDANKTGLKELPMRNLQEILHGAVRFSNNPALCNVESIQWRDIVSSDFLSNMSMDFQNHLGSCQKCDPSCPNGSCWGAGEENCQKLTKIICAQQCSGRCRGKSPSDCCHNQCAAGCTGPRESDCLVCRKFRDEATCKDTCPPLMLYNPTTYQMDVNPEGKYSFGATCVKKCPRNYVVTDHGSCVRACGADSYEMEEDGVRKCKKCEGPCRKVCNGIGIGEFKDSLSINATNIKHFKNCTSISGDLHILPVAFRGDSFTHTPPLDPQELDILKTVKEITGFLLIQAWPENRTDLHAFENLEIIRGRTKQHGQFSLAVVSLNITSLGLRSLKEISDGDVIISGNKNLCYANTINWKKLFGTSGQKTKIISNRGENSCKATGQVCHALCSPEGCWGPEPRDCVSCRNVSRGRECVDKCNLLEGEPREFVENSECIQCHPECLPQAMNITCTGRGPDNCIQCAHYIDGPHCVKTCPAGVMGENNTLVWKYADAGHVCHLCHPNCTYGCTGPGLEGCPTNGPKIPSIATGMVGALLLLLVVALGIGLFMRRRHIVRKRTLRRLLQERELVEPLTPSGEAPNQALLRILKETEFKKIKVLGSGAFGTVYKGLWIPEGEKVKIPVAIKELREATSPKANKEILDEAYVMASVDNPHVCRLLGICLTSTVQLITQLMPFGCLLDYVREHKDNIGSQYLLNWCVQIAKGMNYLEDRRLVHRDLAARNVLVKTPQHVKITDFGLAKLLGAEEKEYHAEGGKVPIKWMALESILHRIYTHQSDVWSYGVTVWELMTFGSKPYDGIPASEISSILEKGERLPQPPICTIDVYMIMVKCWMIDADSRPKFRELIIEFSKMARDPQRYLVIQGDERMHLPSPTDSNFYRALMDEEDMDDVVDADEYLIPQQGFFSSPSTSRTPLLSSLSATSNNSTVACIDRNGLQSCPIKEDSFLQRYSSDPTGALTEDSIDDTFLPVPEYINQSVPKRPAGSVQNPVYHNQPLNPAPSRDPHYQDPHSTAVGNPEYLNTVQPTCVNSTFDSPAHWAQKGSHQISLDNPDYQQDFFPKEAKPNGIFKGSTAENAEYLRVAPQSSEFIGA
Chain of wtERBB2 (P04626 23-1255): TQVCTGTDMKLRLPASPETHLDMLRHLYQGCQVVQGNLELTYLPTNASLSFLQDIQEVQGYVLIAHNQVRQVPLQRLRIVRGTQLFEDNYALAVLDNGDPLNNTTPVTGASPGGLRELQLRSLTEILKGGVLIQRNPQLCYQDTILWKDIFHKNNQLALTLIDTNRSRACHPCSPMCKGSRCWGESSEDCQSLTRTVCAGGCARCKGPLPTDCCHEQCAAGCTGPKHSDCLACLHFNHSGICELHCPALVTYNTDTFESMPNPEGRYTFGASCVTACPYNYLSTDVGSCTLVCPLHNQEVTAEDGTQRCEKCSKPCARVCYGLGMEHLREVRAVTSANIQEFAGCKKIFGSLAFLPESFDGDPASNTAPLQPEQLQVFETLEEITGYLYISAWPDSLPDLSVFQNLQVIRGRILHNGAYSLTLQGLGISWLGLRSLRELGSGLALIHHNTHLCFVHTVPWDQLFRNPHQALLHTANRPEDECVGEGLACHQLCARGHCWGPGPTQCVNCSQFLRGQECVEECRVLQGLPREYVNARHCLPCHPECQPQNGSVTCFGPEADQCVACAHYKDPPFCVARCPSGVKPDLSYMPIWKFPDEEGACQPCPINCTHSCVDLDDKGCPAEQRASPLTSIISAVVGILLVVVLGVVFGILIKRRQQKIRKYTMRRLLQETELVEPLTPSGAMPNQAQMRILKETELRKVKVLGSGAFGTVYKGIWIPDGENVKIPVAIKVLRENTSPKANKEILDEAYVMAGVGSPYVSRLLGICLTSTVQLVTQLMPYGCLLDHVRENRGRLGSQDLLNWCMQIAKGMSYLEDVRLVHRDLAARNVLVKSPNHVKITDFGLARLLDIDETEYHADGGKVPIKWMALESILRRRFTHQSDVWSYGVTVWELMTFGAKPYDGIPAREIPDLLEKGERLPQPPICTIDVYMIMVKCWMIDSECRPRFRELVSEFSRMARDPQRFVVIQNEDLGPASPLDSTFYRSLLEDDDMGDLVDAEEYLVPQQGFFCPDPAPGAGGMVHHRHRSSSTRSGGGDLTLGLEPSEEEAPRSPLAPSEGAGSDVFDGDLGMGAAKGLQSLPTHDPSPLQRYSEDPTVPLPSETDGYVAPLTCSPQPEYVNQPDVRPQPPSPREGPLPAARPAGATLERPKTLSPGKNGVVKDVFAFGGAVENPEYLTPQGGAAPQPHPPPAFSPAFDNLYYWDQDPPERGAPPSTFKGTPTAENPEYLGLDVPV

| SMILES | IC50 (wtERBB2) [nM] | IC50 (wtEGFR) [nM] | IC50 (BaF3_HER2YVMA cells) [nM] | IC50 (BaF3_HER2WT cells) [nM] | IC50 (BaF3_EGFRWT cells) [nM] | IC50 (BaF3_HER2YVMA cells; [1]) [nM] |
| --- | --- | --- | --- | --- | --- | --- |
| Cc1cc(Nc2ncnn3ccc(C4CN(C(=O)/C=C/CN5CCCC5)C4)c23)ccc1Oc1ccn2ncnc2c1 [Example 97, (E)-1-(3-(4-((4-([1,2,4]triazolo[1,5-a]pyridin-7-yloxy)-3-methylphenyl)amino)pyrrolo[2,1-f][1,2,4]triazin-5-yl)azetidin-1-yl)-4-(pyrrolidin-1-yl)but-2-en-1-one] | < 200 | < 200 | < 200 | < 200 | 1500 to 5000 | – |
| Cc1cc(Nc2ncnn3ccc(C4CCN(C(=O)/C=C/CN(C)C)C4)c23)ccc1Oc1ccn2ncnc2c1 (centres unmarked) [Example 98, (E)-1-(3-(4-((4-([1,2,4]triazolo[1,5-a]pyridin-7-yloxy)-3-methylphenyl)amino)-pyrrolo-[2,1-f][1,2,4]triazin-5-yl)pyrrolidin-1-yl)-4-(dimethylamino)but-2-en-1-one] | < 200 | < 200 | – | < 200 | 1500 to 5000 | 200 to 500 |
| C=CC(=O)N1CCCN(c2ccn3ncnc(Nc4ccc(Oc5ccn6ncnc6c5)c(C)c4)c23)CC1 [Example 8, 1-(4-(4-((4-([1,2,4]triazolo[1,5-a]pyridin-7-yloxy)-3-methylphenyl)amino)pyrrolo[2,1-f][1,2,4]triazin-5-yl)-1,4-diazepan-1-yl)prop-2-en-1-one] | < 200 | < 200 | – | < 200 | 500 to 1500 | < 200 |
| Cc1cc(Nc2ncnn3ccc(C4CN(C(=O)/C=C/CN(C)C)C4)c23)ccc1Oc1ccc2c(c1)ncn2C [Example 101, (E)-4-(dimethylamino)-1-(3-(4-((3-methyl-4-((1-methyl-1H-benzo[d]imidazol-5-yl)oxy)phenyl)amino)pyrrolo[2,1-f][1,2,4]triazin-5-yl)azetidin-1-yl)but-2-en-1-one] | < 200 | < 200 | – | < 200 | 1500 to 5000 | < 200 |
